# Patent publication US20090081153A1, “COMBINATION OF SYNTHETIC ANTIMICROBIAL POLYMERS AND SESQUITERPENOID COMPOUNDS” (POLYMEDIX, INC., priority 2007, published 2009)
# Legend:
# E. coli ATCC 25922 = assay: Inactivation kinetics, E. coli ATCC 25922 viability; type: cell-based; conditions: Compound C 31.25 μg/ml, Nerolidol 200 μM
# Text: The surviving cell numbers (log10) were plotted against time for each treatment. The average slopes were obtained using linear regression analysis and were used to calculate D-values for each treatment using D=−1/slope.
# E. coli = assay: Antimicrobial disc assay against E. coli; type: cell-based; conditions: another assay, comparison with traditional antibiotics; results not shown
Compound,D-value (Decimal log reduction time) (E. coli ATCC 25922; D=−1/slope of log10 survivors vs time),Surviving cell numbers (E. coli ATCC 25922; Time 0 min),Surviving cell numbers (E. coli ATCC 25922; Time 5 min),Surviving cell numbers (E. coli ATCC 25922; Time 10 min),Surviving cell numbers (E. coli ATCC 25922; Time 15 min),Surviving cell numbers (E. coli ATCC 25922; Time 30 min),Impact of sesquiterpenoids on activity against E. coli (E. coli)
"C=CC(C)(O)CCC=C(C)CCC=C(C)C (mixture of isomers) [Nerolidol, nerolidol]",260.80 min,8.83 log10,8.80 log10,8.79 log10,8.79 log10,8.77 log10,–
CN[C@H](CC(C)C)C(=O)N[C@H]1C(=O)N[C@@H](CC(N)=O)C(=O)N[C@H]2C(=O)N[C@H]3C(=O)N[C@H](C(=O)N[C@H](C(=O)O)c4cc(O)cc(O)c4-c4cc3ccc4O)[C@H](O)c3ccc(c(Cl)c3)Oc3cc2cc(c3O[C@@H]2O[C@H](CO)[C@@H](O)[C@H](O)[C@H]2O[C@H]2C[C@](C)(N)[C@H](O)[C@H](C)O2)Oc2ccc(cc2Cl)[C@H]1O [vancomycin],–,–,–,–,–,–,no impact
gentamicin,–,–,–,–,–,–,no impact
